Seven compounds from US5955440A, “Macrolide LHRH antagonists” (Abbott Laboratories, priority 1998, dated 1999) can be followed below.

This assay has as its target T1, LHRH rat pituitary receptor (Rattus norvegicus, UniProt P30969).
T1 construct: from tissue; host or cells: rat pituitary
T1 sequence (P30969 1-327): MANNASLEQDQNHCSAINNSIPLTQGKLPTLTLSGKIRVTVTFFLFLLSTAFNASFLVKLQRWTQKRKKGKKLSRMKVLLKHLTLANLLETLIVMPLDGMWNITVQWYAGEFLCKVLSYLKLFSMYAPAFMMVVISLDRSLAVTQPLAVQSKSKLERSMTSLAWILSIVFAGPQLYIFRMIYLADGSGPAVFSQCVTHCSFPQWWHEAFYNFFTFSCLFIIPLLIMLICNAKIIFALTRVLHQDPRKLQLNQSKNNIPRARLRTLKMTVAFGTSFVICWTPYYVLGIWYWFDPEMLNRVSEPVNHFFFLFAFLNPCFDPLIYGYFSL
Put plainly: LHRH rat pituitary receptor binding (pKI). To be noted: negative logarithm of the equilibrium dissociation constants, Table 1, read-out: receptor binding affinity (pKI) (converted). The procedure: Representative compounds of the present invention were evaluated in in vitro tests for LHRH rat pituitary receptor binding (pKI) and for LH inhibition from rat pituitary cells for antagonist potency (pA2). The tests employed the methods detailed in F. Haviv, et al. J. Med. Chem., 32: 2340-2344 (1989). The receptor binding affinity (pKI) is the negative logarithm of the equilibrium dissociation constants.

SMILES strings stand for the structures.

Consider `CC[C@H]1OC(=O)[C@H](C)[C@@H](O[C@H]2C[C@@](C)(OC)[C@@H](O)[C@H](C)O2)[C@H](C)[C@@H](O[C@@H]2O[C@H](C)C[C@H](N(C)CCCc3ccccn3)[C@H]2O)[C@](C)(OC)C[C@@H](C)C(=O)[C@H](C)[C@H]2N(CCc3ccc(Cl)c(Cl)c3)C(=O)O[C@]12C` [Example 77, 3'-N-Desmethyl-3'-N-[3-(2-pyridyl)propyl]-11-deoxy-11-[carboxy-(3,4-dichlorophenethylamino)]-6-O-methyl-erythromycin A 11,12-(cyclic carbamate)], for which the Ki is 6.17 nM. With `CC[C@H]1OC(=O)[C@H](C)[C@@H](O[C@H]2C[C@@](C)(OC)[C@@H](O)[C@H](C)O2)[C@H](C)[C@@H](O[C@@H]2O[C@H](C)C[C@H](N(C)Cc3ccco3)[C@H]2O)[C@](C)(OC)C[C@@H](C)C(=O)[C@H](C)[C@H]2N(CCc3ccc(F)c(Cl)c3)C(=O)O[C@]12C` [Example 45, 3'-N-Desmethyl-3'-N-(2-furyl)methyl-11-deoxy-11-[carboxy-(3-chloro-4-fluorophenethylamino)]-6-O-methyl-erythromycin A 11,12-(cyclic carbamate)] the figure was 3.55 nM. `CCNC(=S)N(C)[C@H]1C[C@@H](C)O[C@@H](O[C@@H]2[C@@H](C)[C@H](O[C@H]3C[C@@](C)(OC)[C@@H](O)[C@H](C)O3)[C@@H](C)C(=O)O[C@H](CC)[C@@]3(C)OC(=O)N(CCc4ccc(Cl)c(Cl)c4)[C@@H]3[C@@H](C)C(=O)[C@H](C)C[C@@]2(C)OC)[C@@H]1O` [Example 57, 3'-N-Desmethyl-3'-N-ethylthiourea-11-deoxy-11-[carboxy-(3,4-dichlorophenethylamino)]-6-O-methyl-erythromycin A 11,12-(cyclic carbamate)]: the Ki is 9.12 nM. Then `CCCN(C)[C@H]1C[C@@H](C)O[C@@H](O[C@@H]2[C@@H](C)[C@H](O[C@H]3C[C@@](C)(OC)[C@@H](O)[C@H](C)O3)[C@@H](C)C(=O)O[C@H](CC)[C@@]3(C)OC(=O)N(CCc4ccc(OC)c(Br)c4)[C@@H]3[C@@H](C)C(=O)[C@H](C)C[C@@]2(C)OC)[C@@H]1O` [Example 43, 3'-N-Desmethyl-3'-N-propyl-11-deoxy-11-[carboxy-(3-bromo-4-methoxyphenethylamino)]-6-O-methyl-erythromycin A 11,12-(cyclic carbamate)], with 3.55 nM; and `CC[C@H]1OC(=O)[C@H](C)[C@@H](O[C@H]2C[C@@](C)(OC)[C@@H](O)[C@H](C)O2)[C@H](C)[C@@H](O[C@@H]2O[C@H](C)C[C@H](N(C)C(C)CCc3ccc(O)cc3)[C@H]2O)[C@](C)(OC)C[C@@H](C)C(=O)[C@H](C)[C@H]2N(CCc3ccc(Cl)c(Cl)c3)C(=O)O[C@]12C` (stereo partly shown) [Example 85, 3'-N-Desmethyl-3'-N-(1-methyl)[3-(4-hydroxy)phenyl]propyl-11-deoxy-11-[carboxy-(3,4-dichlorophenethylamino)]-6-O-methyl-erythromycin A 11,12-(cyclic carbamate)], with 5.89 nM. Then `CC[C@H]1OC(=O)[C@H](C)[C@@H](O[C@H]2C[C@@](C)(OC)[C@@H](O)[C@H](C)O2)[C@H](C)[C@@H](O[C@@H]2O[C@H](C)C[C@H](N(C)Cc3ccc(N(C)C)c4ccccc34)[C@H]2O)[C@](C)(OC)C[C@@H](C)C(=O)[C@H](C)[C@H]2N(CCc3ccc(Cl)c(Cl)c3)C(=O)O[C@]12C` [Example 74, 3'-N-Desmethyl-3'-N-(4-dimethylamino-1-napthylmethyl)-11-deoxy-11-[carboxy-(3,4-dichlorophenethylamino)]-6-O-methyl-erythromycin A 11,12-(cyclic carbamate)], with 3.16 nM; and `CC[C@H]1OC(=O)[C@H](C)[C@@H](O[C@H]2C[C@@](C)(OC)[C@@H](O)[C@H](C)O2)[C@H](C)[C@@H](O[C@@H]2O[C@H](C)C[C@H](N(C)CCc3ccccn3)[C@H]2O)[C@](C)(OC)C[C@@H](C)C(=O)[C@H](C)[C@H]2N(CCc3ccc(Cl)c(Cl)c3)C(=O)O[C@]12C` [Example 89, 3'-N-Desmethyl-3'-N-(2-pyridyl)ethyl-11-deoxy-11-[carboxy-(3,4-dichlorophenethylamino)]-6-O-methyl-erythromycin A 11,12-(cyclic carbamate)], with 4.17 nM.
